Here are results for 4 compounds from paper PMC8780828 (Viruses, 2021).

The structures appear in SMILES notation. Where two headings read alike, the source gives them in different places.

A short description of data set [1]: in vitro. As to conditions: human, Caco-2, A-to-B Papp (cell batch quality control).
The test system of data set [2] is NL4-3ΔEnv-NanoLuc/SARS-CoV-2. Description: organism not typed. Format: cell-based.
Data set [3] addresses β-lactamase. It counts as biochemical.
Data set [4] concerns pseudovirus NL4-3ΔEnv-NanoLuc/SARS-CoV-2. The data set can be described thus: organism not typed. As to conditions: HT-1080; n=3. It counts as cell-based.
Data set [5] has the same test system. Description: organism not typed. Format: cell-based. As to conditions: A549-ACE2; n=3.
The conditions of data set [6]: rat, in vivo.
Data set [7] deals with Trypsin. Format: biochemical.
Data set [8] has as its system pseudovirus NL4-3ΔEnv-NanoLuc/SARS-CoV. Description: microbe, parasite or virus in culture. As to conditions: Severe acute respiratory syndrome coronavirus, HT-1080. Format: cell-based.
Data set [9] concerns SARS-CoV-2 (US_WA-1/2020). It counts as cell-based.
Data set [10] is described as follows: in vivo. As to conditions: female, Sprague Dawley, rat; for MRT inf: MRT0-inf_obs.
For data set [11], the system named is pseudovirus NL4-3ΔEnv-NanoLuc/SARS-CoV-2. Description: SARS-CoV-2 pseudovirus assay with pre-treated 293T/ACE2 cells. Format: cell-based. As to conditions: 293T/ACE2 cells pre-treated with compound 30 min before infection.
Data set [12] concerns the target malate dehydrogenase (MDH). It counts as biochemical.
Data set [13] relates to control pseudovirus NL4-3.Luc.R-E-/A-MLV. Description: Control pseudovirus A-MLV assay in 293T/ACE2 cells. It counts as cell-based, amphotropic murine leukemia virus (A-MLV). As to conditions: NL43, 293T/ACE2.
Data set [14] has as its system pseudovirus NL4-3ΔEnv-NanoLuc/MERS-CoV. The data set can be described thus: microbe, parasite or virus in culture. It counts as cell-based. As to conditions: Middle East respiratory syndrome-related coronavirus, Huh-7.
The target of data set [15] is SARS-CoV-2 spike S1 subunit protein (Severe acute respiratory syndrome coronavirus 2, UniProt P0DTC2). Format: binding.
The subject of data set [16] is pseudovirus NL4-3ΔEnv-NanoLuc/SARS-CoV. The data set can be described thus: microbe, parasite or virus in culture. It counts as cell-based. As to conditions: Severe acute respiratory syndrome coronavirus, A549-ACE2.
In data set [17] the test system is pseudovirus NL4-3ΔEnv-NanoLuc/MERS-CoV. Description: microbe, parasite or virus in culture. Format: cell-based. As to conditions: Middle East respiratory syndrome-related coronavirus, MRC5.
Data set [18] concerns SARS-CoV-2. As to conditions: Vero E6 cells; NLuc-based assay; cited from earlier work.
The test system of data set [19] is SARS-CoV-2. As to conditions: A549-hACE2 cells; NLuc-based assay; cited from earlier work.
Data set [20] addresses FLuc (Photinus pyralis, UniProt P08659). Format: biochemical.
Where [21] appears, read: female, Sprague Dawley, iv, 5 mg/kg.

Chain of FLuc (P08659 whole entry): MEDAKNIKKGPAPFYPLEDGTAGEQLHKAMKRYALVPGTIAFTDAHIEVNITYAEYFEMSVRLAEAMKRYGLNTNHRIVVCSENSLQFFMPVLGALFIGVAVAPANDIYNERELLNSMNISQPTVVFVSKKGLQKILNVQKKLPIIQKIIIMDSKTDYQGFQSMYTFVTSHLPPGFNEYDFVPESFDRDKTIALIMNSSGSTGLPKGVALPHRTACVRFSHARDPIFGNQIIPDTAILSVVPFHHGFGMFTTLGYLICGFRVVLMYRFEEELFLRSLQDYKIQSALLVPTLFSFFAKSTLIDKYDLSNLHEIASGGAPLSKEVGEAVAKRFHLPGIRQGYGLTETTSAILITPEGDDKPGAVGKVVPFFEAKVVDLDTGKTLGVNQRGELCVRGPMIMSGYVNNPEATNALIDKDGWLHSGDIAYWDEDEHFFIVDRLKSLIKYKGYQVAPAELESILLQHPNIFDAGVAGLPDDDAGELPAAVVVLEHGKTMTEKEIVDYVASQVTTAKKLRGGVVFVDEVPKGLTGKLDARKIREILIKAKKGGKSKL

Regarding `C[C@H]1O[C@@H](O[C@H]2[C@@H](O)C[C@H](O[C@H]3[C@@H](O)C[C@H](O[C@H]4CC[C@@]5(C)[C@H](CC[C@@H]6[C@@H]5C[C@@H](O)[C@]5(C)[C@@H](C7=CC(=O)OC7)CC[C@]65O)C4)O[C@@H]3C)O[C@@H]2C)C[C@H](O)[C@@H]1O` [Digoxin, reference compound], the Papp A→B in data set [1] is 0.34 ×10⁻⁶ cm/s.
As for `O=C(O)c1cccc(-c2ccc(/C=C3\SC(=S)N(CCc4ccccc4)C3=O)o2)c1` [NBCoV2], the “IC100 (range of IC100 values detected in the three cell lines)” value in data set [2] fell in the range of 0.3 to 1 µM. Moreover, the half-inhibitory concentration (IC50) in [2] (read-out: IC50 (range over the three cell lines)) was 22.8 to 58 nM; in data set [3], above 2000 nM; in data set [4], 25.3 ± 0.6 nM; in [5] it was 58 ± 1.7 nM; in [7], above 2000 nM; in data set [8] it was 19.3 ± 1.1 nM. Moreover, the IC50 is above 2000 nM in [11]; above 2000 nM in data set [12]; 783 ± 76 nM in data set [13]; 112 ± 7 nM in data set [14]; 111 ± 9 nM in data set [16]; 77 nM in [17]. Moreover, the CLobs in data set [6] (setting [21]) is reported as 0.00027 (mg/kg)/(ng/mL)/h. The Vss_obs in data set [6] (setting [21]) is 0.0014 (mg/kg)/(ng/mL). Further, the AUC0-t is 18,074.45 ng/mL ∗ h in data set [6] (iv, 5 mg/kg) and 318.78 ng/mL ∗ h in data set [6] (po, 10 mg/kg). In addition, the Vz/F_obs in data set [6] (po, 10 mg/kg) is 0.1759 (mg/kg)/(ng/mL). In data set [9], the IC100 is reported as above 10 µM. This compound registered a bioavailability in data set [10] (F% (bioavailability)) of 0.9%. Moreover, the C0 in data set [10] (iv, 5 mg/kg) was found to be 1710 ng/mL. Further, the Tmax in data set [10] (iv, 5 mg/kg) came out at 2 h; in [10] (po, 10 mg/kg), 4 h. Moreover, the Cmax in data set [10] (iv, 5 mg/kg) was found to be 2220 ng/mL; in data set [10] (po, 10 mg/kg), 30.1 ng/mL. Further, the MRT inf came out at 5.09 h in [10] (iv, 5 mg/kg) and 7.28 h in data set [10] (po, 10 mg/kg). In addition, the half-life is 3.52 h in [10] (iv, 5 mg/kg, t1/2); 3.96 h in data set [10] (po, 10 mg/kg, t1/2); 3.5 to 3.9 h in data set [10] (t1/2 (range PO and IV)). Besides, the kd in data set [15] stood at 0.0251 s⁻¹.
For `CCC(CC)COC(=O)[C@H](C)N[P@](=O)(OC[C@H]1O[C@@](C#N)(c2ccc3c(N)ncnn23)[C@H](O)[C@@H]1O)Oc1ccccc1` [remdesivir], the antiviral potency was 1280 nM in [18] and 115 nM in [19].
In the case of `Oc1ccc(/C=C/c2cc(O)cc(O)c2)cc1` [resveratrol], in data set [20], the “effect on FLuc activity” value is given as “completely blocked”.

Usually Papp A→B stands for how fast a substance crosses the layer from the apical side. A low value points to slow passage. By IC50 is commonly meant the point on the concentration scale where inhibition reaches its midpoint. For orientation: bioavailability means dose-corrected exposure relative to a reference, in per cent. In general, Tmax refers to the time at which the peak concentration occurs. The Cmax is the peak of the concentration-time curve. By MRT inf is commonly meant a mean duration of stay, worked out from the concentration-time curve. By half-life is commonly meant the time in which the quantity being followed falls by half. Read a high half-life as slow decline.
